Columns and labels:
[1] = tested on: HBV; experiment: Anti-HBV activity, HepG2.2.15 stable transfected cell line, HBV DNA from secreted virions by realtime PCR; type: cell-based; conditions: Hepatitis B virus
[2] = tested on: HBV; experiment: Anti-HBV activity, HepG2.117 inducible HBV producing cell line (Tet-off), intracellular HBV DNA by realtime PCR; type: cell-based; conditions: Hepatitis B virus
[3] = Cytotoxicity in HepG2 cells, Resazurin viability assay; conditions: human
[4] = 144 h, HepG2.2.15 cells, 6 days of treatment, HBV DNA from secreted virions, read-out: HepG 2.2.15 EC50
[5] = 72 h, HepG2.117 cells, 3 days of treatment, intracellular HBV DNA, read-out: HepG2 117 EC50
[6] = HepG2.2.15, 144 h, read-out: HepG 2.2.15 EC50 (μM)
[7] = HepG2.117, 72 h, read-out: HepG2 117 EC50 (μM)

C[C@@H](NC(=O)C(=O)c1cn(C)c(C(=O)Nc2ccc(F)c(C#N)c2)c1Cl)C(F)(F)F [Compound 24, 3-chloro-N-(3-cyano-4-fluoro-phenyl)-1-methyl-4-[2-oxo-2-[[(1R)-2,2,2-trifluoro-1-methyl-ethyl]amino]acetyl]pyrrole-2-carboxamide]
EC50 [1, 4]: 0.02 µM | EC50 [2, 5]: 0.024 µM | CC50 at 4 days ([3]; HepG2 cells): > 25000 nM

Cc1cc(NC(=O)c2cc(C(=O)C(=O)N[C@H](C)CC#N)cn2C)ccc1F [Compound 9, 4-[{[(1R)-2-Cyano-1-methylethyl]amino}(oxo)acetyl]-N-(4-fluoro-3-methyl-phenyl)-1-methyl-1H-pyrrole-2-carboxamide]
EC50 [1, 4]: 0.17 µM | EC50 [2, 5]: 0.2 µM | CC50 at 4 days ([3]; HepG2 cells): > 25000 nM

Cc1c(C(=O)C(=O)NC(C)(C)C)c(C)n(C)c1C(=O)Nc1ccc(F)c(C#N)c1 [Compound 19, 4-[(tert-Butylamino)(oxo)acetyl]-N-(3-cyano-4-fluorophenyl)-1,3,5-trimethyl-1H-pyrrole-2-carboxamide]
EC50 [1, 4]: < 0.004 µM | EC50 [2, 5]: 0.002 µM | CC50 at 4 days ([3]; HepG2 cells): > 100000 nM

Cc1cc(NC(=O)c2cc(C(=O)C(=O)NC(C)C)cn2C)ccc1F [Compound 2, N-(4-fluoro-3-methylphenyl)-4-(2-(isopropylamino)-2-oxoacetyl)-1-methyl-1H-pyrrole-2-carboxamide]
EC50 [1, 6]: 0.029 µM | EC50 [2, 7]: 0.75 µM | CC50 at 4 days ([3]; HepG2 cells): > 25000 nM

Cc1c(C(=O)C(=O)NC(C)(C)C)cn(C)c1C(=O)Nc1ccc(F)c(C#N)c1 [Compound 22, 4-[(tert-Butylamino)(oxo)acetyl]-N-(3-cyano-4-fluorophenyl)-1,3-dimethyl-1H-pyrrole-2-carboxamide]
EC50 [1, 4]: 0.01 µM | EC50 [2, 5]: 0.008 µM | CC50 at 4 days ([3]; HepG2 cells): > 25000 nM

Cc1c(C(=O)C(=O)NC(C)(C)C)cn(C)c1C(=O)Nc1ccc(F)c(F)c1 [Compound 21, 4-[(tert-Butylamino)(oxo)acetyl]-N-(3,4-difluorophenyl)-1,3-dimethyl-1H-pyrrole-2-carboxamide]
EC50 [1, 4]: 0.009 µM | EC50 [2, 5]: 0.011 µM | CC50 at 4 days ([3]; HepG2 cells): > 25000 nM

Cc1c(C(=O)C(=O)N[C@H](C)C(F)(F)F)cc(C(=O)Nc2ccc(F)c(C#N)c2)n1C [Compound 28, N-(3-cyano-4-fluoro-phenyl)-1,5-dimethyl-4-[2-oxo-2-[[(1R)-2,2,2-trifluoro-1-methyl-ethyl]amino]acetyl]pyrrole-2-carboxamide]
EC50 [1, 4]: < 0.004 µM | EC50 [2, 5]: 0.019 µM | CC50 at 4 days ([3]; HepG2 cells): > 25000 nM

Cn1cc(C(=O)C(=O)NC2(C)COC2)cc1C(=O)Nc1cccc(C(F)(F)F)c1 [Compound 13, 1-methyl-4-(2-(3-methyloxetan-3-ylamino)-2-oxoacetyl)-N-(3-(trifluoro-methyl)phenyl)-1H-pyrrole-2-carboxamide]
EC50 [1, 4]: 0.033 µM | EC50 [2, 5]: > 1 µM | CC50 at 4 days ([3]; HepG2 cells): > 25000 nM

Cn1cc(C(=O)C(=O)NC2(C)COC2)cc1C(=O)Nc1cc(F)c(F)c(Cl)c1 [Compound 17, N-(3-Chloro-4,5-difluorophenyl)-1-methyl-4-{[(3-methyloxetan-3-yl)-amino](oxo)acetyl}-1H-pyrrole-2-carboxamide]
EC50 [1, 4]: 0.029 µM | EC50 [2, 5]: 0.57 µM | CC50 at 4 days ([3]; HepG2 cells): > 25000 nM

Cc1c(C(=O)C(=O)NC(C)(C)C)c(Cl)c(C(=O)Nc2ccc(F)c(C#N)c2)n1C [Compound 32, 4-[2-(tert-butylamino)-2-oxo-acetyl]-3-chloro-N-(3-cyano-4-fluoro-phenyl)-1,5-dimethyl-pyrrole-2-carboxamide]
EC50 [1, 4]: < 0.004 µM | EC50 [2, 5]: < 0.004 µM | CC50 at 4 days ([3]; HepG2 cells): > 25000 nM

Cn1cc(C(=O)C(=O)NC2(C)COC2)cc1C(=O)Nc1ccc(F)c(C#N)c1 [Compound 16, N-(3-Cyano-4-fluorophenyl)-1-methyl-4-{[(3-methyloxetan-3-yl)amino]-(oxo)acetyl}-1H-pyrrole-2-carboxamide]
EC50 [1, 4]: 0.048 µM | EC50 [2, 5]: 0.04 µM | CC50 at 4 days ([3]; HepG2 cells): > 25000 nM

Cn1cc(C(=O)C(=O)NC(C)(C)C)cc1C(=O)Nc1cccc(C(F)(F)F)c1 [Compound 12, 4-(2-(tert-butylamino)-2-oxoacetyl)-1-methyl-N-(3-(trifluoromethyl)phenyl)-1H-pyrrole-2-carboxamide]
EC50 [1, 6]: 0.043 µM | EC50 [2, 7]: 0.74 µM | CC50 at 4 days [3]: > 25000 nM

Cn1cc(C(=O)C(=O)NC(C)(C)C)cc1C(=O)Nc1ccc(F)c(C#N)c1 [Compound 15, 4-(2-(tert-butylamino)-2-oxoacetyl)-N-(3-cyano-4-fluorophenyl)-1-methyl-1H-pyrrole-2-carboxamide]
EC50 [1, 4]: 0.027 µM | EC50 [2, 5]: 0.043 µM | CC50 at 4 days ([3]; HepG2 cells): > 25000 nM

C[C@@H](NC(=O)C(=O)c1cc(C(=O)Nc2cc(F)c(F)c(Cl)c2)n(C)c1)C(F)(F)F [Compound 18, N-(3-Chloro-4,5-difluorophenyl)-1-methyl-4-(oxo{[(1R)-2,2,2-trifluoro-1-methylethyl]amino}acetyl)-1H-pyrrole-2-carboxamide]
EC50 [1, 4]: 0.054 µM | EC50 [2, 5]: 0.37 µM | CC50 at 4 days ([3]; HepG2 cells): > 25000 nM

Cn1cc(C(=O)C(=O)NC(C)(C)C)cc1C(=O)Nc1cc(F)c(F)c(Cl)c1 [Compound 14, 4-(2-(tert-butylamino)-2-oxoacetyl)-N-(3-chloro-4,5-difluorophenyl)-1-methyl-1H-pyrrole-2-carboxamide]
EC50 [1, 4]: 0.03 µM | EC50 [2, 5]: 0.038 µM | CC50 at 4 days ([3]; HepG2 cells): > 25000 nM

Cc1cc(NC(=O)c2cc(C(=O)C(=O)NC(C)(C)C)cn2C)ccc1F [Compound 3, 4-(2-(tert-butylamino)-2-oxoacetyl)-N-(4-fluoro-3-methylphenyl)-1-methyl-1H-pyrrole-2-carboxamide]
EC50 [1, 4]: 0.015 µM | EC50 [2, 5]: 0.04 µM | CC50 at 4 days ([3]; HepG2 cells): > 25000 nM

C[C@@H](NC(=O)C(=O)c1c(Cl)c(C(=O)Nc2ccc(F)c(C#N)c2)n(C)c1C1CC1)C(F)(F)F [Compound 31, 3-chloro-N-(3-cyano-4-fluoro-phenyl)-5-cyclopropyl-1-methyl-4-[2-oxo-2-[[(1R)-2,2,2-trifluoro-1-methyl-ethyl]amino]acetyl]pyrrole-2-carboxamide]
EC50 [1, 4]: 0.012 µM | EC50 [2, 5]: 0.019 µM | CC50 at 4 days ([3]; HepG2 cells): > 25000 nM

Cc1c(C(=O)C(=O)N[C@H](C)C(F)(F)F)c(Cl)c(C(=O)Nc2ccc(F)c(C#N)c2)n1C [Compound 30, 3-chloro-N-(3-cyano-4-fluoro-phenyl)-1,5-dimethyl-4-[2-oxo-2-[[(1R)-2,2,2-trifluoro-1-methyl-ethyl]amino]acetyl]pyrrole-2-carboxamide]
EC50 [1, 4]: < 0.004 µM | EC50 [2, 5]: 0.003 µM | CC50 at 4 days ([3]; HepG2 cells): > 25000 nM

COCC(C)(C)NC(=O)C(=O)c1cc(C(=O)Nc2ccc(F)c(C#N)c2)n(C)c1C [Compound 79, N-(3-cyano-4-fluoro-phenyl)-4-[2-[(2-methoxy-1,1-dimethyl-ethyl)amino]-2-oxo-acetyl]-1,5-dimethyl-pyrrole-2-carboxamide]
EC50 [2, 5]: 0.008 µM | CC50 at 4 days ([3]; HepG2 cells): > 25000 nM

Cc1c(C(=O)C(=O)N[C@H](CO)C(C)C)cc(C(=O)Nc2ccc(F)c(C#N)c2)n1C [Compound 68, N-(3-cyano-4-fluoro-phenyl)-4-[2-[[(1S)-1-(hydroxymethyl)-2-methyl-propyl]amino]-2-oxo-acetyl]-1,5-dimethyl-pyrrole-2-carboxamide]
EC50 [2, 5]: 0.078 µM | CC50 at 4 days ([3]; HepG2 cells): > 25000 nM

Cc1c(C(=O)C(=O)N[C@H](C)C(C)(F)F)cc(C(=O)Nc2ccc(F)c(C#N)c2)n1C [Compound 54, N-(3-cyano-4-fluoro-phenyl)-4-[2-[[(1R)-2,2-difluoro-1-methyl-propyl]-amino]-2-oxo-acetyl]-1,5-dimethyl-pyrrole-2-carboxamide]
EC50 [2, 5]: 0.01 µM | CC50 at 4 days ([3]; HepG2 cells): > 25000 nM

C[C@@H](NC(=O)C(=O)c1c(Cl)c(C(=O)Nc2ccc(F)c(C#N)c2)n(C)c1Br)C(F)(F)F [Compound 29, 5-bromo-3-chloro-N-(3-cyano-4-fluoro-phenyl)-1-methyl-4-[2-oxo-2-[[(1R)-2,2,2-trifluoro-1-methyl-ethyl]amino]acetyl]pyrrole-2-carboxamide]
EC50 [2, 5]: 0.014 µM | CC50 at 4 days ([3]; HepG2 cells): > 25000 nM

C[C@@H](NC(=O)C(=O)c1cc(C(=O)Nc2ccc(F)c(C#N)c2)n(C)c1Br)C(F)(F)F [Compound 25, 5-bromo-N-(3-cyano-4-fluoro-phenyl)-1-methyl-4-[2-oxo-2-[[(1R)-2,2,2-trifluoro-1-methyl-ethyl]amino]acetyl]pyrrole-2-carboxamide]
EC50 [2, 5]: > 1 µM | CC50 at 4 days ([3]; HepG2 cells): > 25000 nM

Cn1cc(C(=O)C(=O)NC2(C)CC(F)(F)C2)c(F)c1C(=O)Nc1ccc(F)c(C#N)c1 [Compound 35, N-(3-cyano-4-fluoro-phenyl)-4-[2-[(3,3-difluoro-1-methyl-cyclobutyl)-amino]-2-oxo-acetyl]-3-fluoro-1-methyl-pyrrole-2-carboxamide]
EC50 [2, 5]: 0.004 µM | CC50 at 4 days ([3]; HepG2 cells): > 25000 nM

C[C@H](CO)NC(=O)C(=O)c1cn(C)c(C(=O)Nc2ccc(F)c(C#N)c2)c1F [Compound 95, N-(3-cyano-4-fluoro-phenyl)-3-fluoro-4-[2-[[(1R)-2-hydroxy-1-methyl-ethyl]amino]-2-oxo-acetyl]-1-methyl-pyrrole-2-carboxamide]
EC50 [2, 5]: 0.065 µM | CC50 at 4 days ([3]; HepG2 cells): > 25000 nM

Cc1c(C(=O)C(=O)NC(C)(C)CCO)cc(C(=O)Nc2ccc(F)c(C#N)c2)n1C [Compound 81, N-(3-cyano-4-fluoro-phenyl)-4-[2-[(3-hydroxy-1,1-dimethyl-propyl)amino]-2-oxo-acetyl]-1,5-dimethyl-pyrrole-2-carboxamide]
EC50 [2, 5]: 0.012 µM | CC50 at 4 days ([3]; HepG2 cells): > 25000 nM

Cn1cc(C(=O)C(=O)NC2(C)CC(F)(F)C2)c(Cl)c1C(=O)Nc1ccc(F)c(C#N)c1 [Compound 40, 3-chloro-N-(3-cyano-4-fluoro-phenyl)-4-[2-[(3,3-difluoro-1-methyl-cyclobutyl)amino]-2-oxo-acetyl]-1-methyl-pyrrole-2-carboxamide]
EC50 [2, 5]: 0.007 µM | CC50 at 4 days ([3]; HepG2 cells): > 25000 nM

— patent US10450270B2, “Glyoxamide substituted pyrrolamide derivatives and the use thereof as medicaments for the treatment of hepatitis B” (Janssen Sciences Ireland UC, priority 2013, dated 2019)
